Reference: PubChem BioAssay (NCI)
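Where inhibition never reached the appropriate level, the endpoint shown equals the highest concentration tested. Otherwise, values were interpolated linearly from a five-concentration, 48-hour dose response in 96-well plates. GI50: concentration for 50% inhibition of growth. TGI denotes the concentration required for complete inhibition of growth.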

What was measured:
Test in all cases: inhibition of tumour cell growth, NCI panel, 48 h
SK-MEL-28 melanoma = system: SK-MEL-28 melanoma
LOX IMVI melanoma = system: LOX IMVI melanoma
SR leukemia = system: SR leukemia
RPMI-8226 leukemia = system: RPMI-8226 leukemia
OVCAR-4 ovarian = system: OVCAR-4 ovarian
NCI-H23 lung = system: NCI-H23 lung
SK-OV-3 ovarian = system: SK-OV-3 ovarian
UACC-62 melanoma = system: UACC-62 melanoma
SF-539 CNS = system: SF-539 CNS
NCI/ADR-RES ovarian = system: NCI/ADR-RES ovarian

COc1ccc(NC(=O)CC(=O)N/N=C/c2ccc(N(CCC#N)S(=O)(=O)c3ccccc3)cc2)cc1
TGI (SK-MEL-28 melanoma): > 100 µM
TGI (LOX IMVI melanoma): > 100 µM
TGI (SR leukemia): > 100 µM
TGI (RPMI-8226 leukemia): > 100 µM
TGI (OVCAR-4 ovarian): > 100 µM
TGI (NCI-H23 lung): > 100 µM
TGI (SK-OV-3 ovarian): > 100 µM
TGI (UACC-62 melanoma): > 100 µM

COc1ccc(C(=O)C(C(=O)C(=O)Nc2nccs2)c2ccc(OC)cc2)cc1 (centres undefined)
TGI (SK-MEL-28 melanoma): > 100 µM
TGI (LOX IMVI melanoma): > 100 µM
TGI (RPMI-8226 leukemia): > 100 µM
TGI (NCI-H23 lung): > 100 µM
TGI (SF-539 CNS): > 100 µM
TGI (SK-OV-3 ovarian): > 100 µM
TGI (UACC-62 melanoma): > 100 µM

O=C(Nc1ccc(Cl)cc1)c1cc(S(=O)(=O)Nc2nnc(-c3ccccc3)c(-c3ccccc3)n2)c(SCc2ccccc2)cc1Cl
GI50 (SK-MEL-28 melanoma): 28.9 µM
TGI (SK-MEL-28 melanoma): > 73.6 µM
GI50 (LOX IMVI melanoma): 17.3 µM
TGI (LOX IMVI melanoma): 35.1 µM
GI50 (SR leukemia): 28.9 µM
TGI (SR leukemia): > 57.3 µM
GI50 (OVCAR-4 ovarian): 49.8 µM
TGI (OVCAR-4 ovarian): > 85.4 µM
GI50 (NCI-H23 lung): 24.6 µM
TGI (NCI-H23 lung): 53.7 µM
GI50 (SF-539 CNS): 35 µM
TGI (SF-539 CNS): > 100 µM
GI50 (NCI/ADR-RES ovarian): > 50.2 µM
TGI (NCI/ADR-RES ovarian): > 80.2 µM
GI50 (SK-OV-3 ovarian): > 44.2 µM
TGI (SK-OV-3 ovarian): > 60.7 µM
GI50 (UACC-62 melanoma): 18.2 µM
TGI (UACC-62 melanoma): 39.7 µM

CCN(CC)CCOc1ccc2c(c1)C(=O)c1cc(OCCN(CC)CC)ccc1-2
GI50 (SK-MEL-28 melanoma): 15.1 µM
TGI (SK-MEL-28 melanoma): 29.4 µM
GI50 (LOX IMVI melanoma): 4.31 µM
TGI (LOX IMVI melanoma): 16.7 µM
GI50 (SR leukemia): 2.69 µM
TGI (SR leukemia): 6.59 µM
GI50 (OVCAR-4 ovarian): 5.69 µM
TGI (OVCAR-4 ovarian): 38.7 µM
GI50 (NCI-H23 lung): 11.9 µM
TGI (NCI-H23 lung): 27.5 µM
GI50 (SF-539 CNS): 2.54 µM
TGI (SF-539 CNS): 5.72 µM
GI50 (NCI/ADR-RES ovarian): 9.63 µM
TGI (NCI/ADR-RES ovarian): 33.2 µM
GI50 (SK-OV-3 ovarian): 16.4 µM
TGI (SK-OV-3 ovarian): 60.2 µM
GI50 (UACC-62 melanoma): 12.4 µM
TGI (UACC-62 melanoma): 26.7 µM

COc1cc2c([C@@H](OC(=O)c3ccccc3)c3ccc4c(c3)OCO4)nccc2c(OC)c1OC
TGI (LOX IMVI melanoma): > 100 µM
TGI (SR leukemia): > 100 µM
TGI (RPMI-8226 leukemia): 51 µM
TGI (OVCAR-4 ovarian): > 100 µM
TGI (NCI-H23 lung): > 100 µM
TGI (SF-539 CNS): > 100 µM
TGI (SK-OV-3 ovarian): > 100 µM
TGI (UACC-62 melanoma): > 100 µM

CCCCN(CCCC)C(=O)C(=O)C(C)C(=O)CC (centres undefined)
TGI (SK-MEL-28 melanoma): > 100 µM
TGI (LOX IMVI melanoma): > 100 µM
TGI (RPMI-8226 leukemia): > 100 µM
TGI (OVCAR-4 ovarian): > 100 µM
TGI (NCI-H23 lung): > 100 µM
TGI (SF-539 CNS): > 100 µM
TGI (SK-OV-3 ovarian): > 100 µM
TGI (UACC-62 melanoma): > 100 µM

Cc1cccc(C)c1NC(=O)CCC(=O)NC(N)=S
TGI (LOX IMVI melanoma): > 100 µM
TGI (SR leukemia): > 100 µM
TGI (RPMI-8226 leukemia): > 100 µM
TGI (NCI-H23 lung): > 100 µM
TGI (SF-539 CNS): > 100 µM
TGI (SK-OV-3 ovarian): > 100 µM
TGI (UACC-62 melanoma): > 100 µM

CC(O)(CNS(=O)(=O)c1ccccc1)c1ccccc1 (centres undefined)
TGI (SK-MEL-28 melanoma): > 100 µM
TGI (LOX IMVI melanoma): > 100 µM
TGI (SR leukemia): > 100 µM
TGI (RPMI-8226 leukemia): > 100 µM
TGI (OVCAR-4 ovarian): > 100 µM
TGI (NCI-H23 lung): > 100 µM
TGI (NCI/ADR-RES ovarian): > 100 µM
TGI (SK-OV-3 ovarian): > 100 µM
TGI (UACC-62 melanoma): > 100 µM

NCCP(=O)(O)O
TGI (SK-MEL-28 melanoma): > 100 µM
TGI (LOX IMVI melanoma): > 100 µM
TGI (SR leukemia): > 100 µM
TGI (RPMI-8226 leukemia): > 100 µM
TGI (OVCAR-4 ovarian): > 100 µM
TGI (NCI-H23 lung): > 100 µM
TGI (NCI/ADR-RES ovarian): > 100 µM
TGI (SK-OV-3 ovarian): > 100 µM
TGI (UACC-62 melanoma): > 100 µM

Cc1[nH]nc2c1C(=O)C=C(N(CCO)c1ccccc1)C2=O
TGI (SK-MEL-28 melanoma): > 100 µM
TGI (LOX IMVI melanoma): > 100 µM
TGI (RPMI-8226 leukemia): > 100 µM
TGI (NCI-H23 lung): > 100 µM
TGI (SF-539 CNS): > 100 µM
TGI (SK-OV-3 ovarian): > 100 µM
TGI (UACC-62 melanoma): > 100 µM

CCCCCCNc1nc(N2CCOCC2)c2[nH]c(NCCCCCC)nc2n1
GI50 (SK-MEL-28 melanoma): 1.65 µM
TGI (SK-MEL-28 melanoma): 3.01 µM
GI50 (LOX IMVI melanoma): 1.48 µM
TGI (LOX IMVI melanoma): 2.8 µM
GI50 (RPMI-8226 leukemia): 1.91 µM
TGI (RPMI-8226 leukemia): 5.42 µM
GI50 (OVCAR-4 ovarian): 1.43 µM
TGI (OVCAR-4 ovarian): 2.87 µM
GI50 (NCI-H23 lung): 1.35 µM
TGI (NCI-H23 lung): 2.63 µM
GI50 (SF-539 CNS): 1.82 µM
TGI (SF-539 CNS): 3.33 µM
GI50 (NCI/ADR-RES ovarian): 1.59 µM
TGI (NCI/ADR-RES ovarian): 2.97 µM
GI50 (SK-OV-3 ovarian): 1.73 µM
TGI (SK-OV-3 ovarian): 3.14 µM
GI50 (UACC-62 melanoma): 1.63 µM
TGI (UACC-62 melanoma): 3.12 µM

N#CC(C(=N/NC(N)=S)/C(=N/NC(N)=S)C(C#N)c1ccc(Cl)cc1)c1ccc(Cl)cc1 (centres undefined)
TGI (SK-MEL-28 melanoma): > 100 µM
TGI (LOX IMVI melanoma): > 100 µM
TGI (OVCAR-4 ovarian): > 100 µM
TGI (NCI-H23 lung): > 100 µM
TGI (SF-539 CNS): > 100 µM
TGI (SK-OV-3 ovarian): > 100 µM
TGI (UACC-62 melanoma): > 100 µM

CCc1cccc(C(C)CC)c1NC(=O)C(=O)C(CC(=O)Nc1ccc(Cl)c(Cl)c1)C(=O)OC (centres undefined)
TGI (SK-MEL-28 melanoma): > 100 µM
TGI (SR leukemia): > 100 µM
TGI (RPMI-8226 leukemia): > 100 µM
TGI (OVCAR-4 ovarian): > 100 µM
TGI (NCI-H23 lung): > 100 µM
TGI (SF-539 CNS): > 100 µM
TGI (SK-OV-3 ovarian): > 100 µM
TGI (UACC-62 melanoma): 18.9 µM

Cc1nc(Nc2ccccc2)sc1C(=O)NNc1ccc([N+](=O)[O-])cc1[N+](=O)[O-]
TGI (SK-MEL-28 melanoma): > 100 µM
TGI (LOX IMVI melanoma): 87.9 µM
TGI (SR leukemia): 65.7 µM
TGI (OVCAR-4 ovarian): > 100 µM
TGI (NCI-H23 lung): 44.2 µM
TGI (SF-539 CNS): > 100 µM
TGI (SK-OV-3 ovarian): > 100 µM
TGI (UACC-62 melanoma): > 100 µM

N#C/C(N)=C(\C#N)N=Cc1csc2ccccc12
GI50 (SK-MEL-28 melanoma): 37.5 µM
TGI (SK-MEL-28 melanoma): > 100 µM
GI50 (LOX IMVI melanoma): 26.3 µM
TGI (LOX IMVI melanoma): 66.3 µM
GI50 (RPMI-8226 leukemia): > 100 µM
TGI (RPMI-8226 leukemia): > 100 µM
GI50 (OVCAR-4 ovarian): 43.5 µM
TGI (OVCAR-4 ovarian): > 100 µM
GI50 (NCI-H23 lung): 11.5 µM
TGI (NCI-H23 lung): 51.2 µM
GI50 (SF-539 CNS): 20.1 µM
TGI (SF-539 CNS): 50.9 µM
GI50 (NCI/ADR-RES ovarian): 32.4 µM
TGI (NCI/ADR-RES ovarian): > 100 µM
GI50 (SK-OV-3 ovarian): 20.2 µM
TGI (SK-OV-3 ovarian): 46 µM
GI50 (UACC-62 melanoma): 28.2 µM
TGI (UACC-62 melanoma): > 100 µM

Cc1ccc2c(c1)O/C(=C\c1ccc([N+](=O)[O-])o1)C2=O
GI50 (SK-MEL-28 melanoma): 2.15 µM
TGI (SK-MEL-28 melanoma): 4.89 µM
GI50 (LOX IMVI melanoma): 1.47 µM
TGI (LOX IMVI melanoma): 3.1 µM
GI50 (SR leukemia): 0.168 µM
TGI (SR leukemia): 0.799 µM
GI50 (RPMI-8226 leukemia): 0.447 µM
TGI (RPMI-8226 leukemia): 2.54 µM
GI50 (OVCAR-4 ovarian): 1.47 µM
TGI (OVCAR-4 ovarian): 2.84 µM
GI50 (NCI-H23 lung): 1.94 µM
TGI (NCI-H23 lung): 4.82 µM
GI50 (NCI/ADR-RES ovarian): 2.85 µM
TGI (NCI/ADR-RES ovarian): 23.1 µM
GI50 (SK-OV-3 ovarian): 4.66 µM
TGI (SK-OV-3 ovarian): > 100 µM
GI50 (UACC-62 melanoma): 1.6 µM
TGI (UACC-62 melanoma): 3.5 µM

Nc1ccc2ccc(NS(=O)(=O)N3CCCCC3)cc2c1
GI50 (SK-MEL-28 melanoma): 0.664 µM
TGI (SK-MEL-28 melanoma): > 100 µM
GI50 (LOX IMVI melanoma): 1.03 µM
TGI (LOX IMVI melanoma): > 100 µM
GI50 (SR leukemia): 0.215 µM
TGI (SR leukemia): > 100 µM
GI50 (RPMI-8226 leukemia): 0.507 µM
TGI (RPMI-8226 leukemia): > 49.6 µM
GI50 (OVCAR-4 ovarian): 1.82 µM
TGI (OVCAR-4 ovarian): > 100 µM
GI50 (NCI-H23 lung): 1.53 µM
TGI (NCI-H23 lung): > 63.8 µM
GI50 (SK-OV-3 ovarian): 0.498 µM
GI50 (UACC-62 melanoma): 0.301 µM
TGI (UACC-62 melanoma): > 100 µM

O=C1c2ccn(CCCCN3CCCCC3)c2C(=O)c2c1c(O)c1ccccc1c2O
GI50 (SK-MEL-28 melanoma): 3.73 µM
TGI (SK-MEL-28 melanoma): 44.2 µM
GI50 (LOX IMVI melanoma): 1.72 µM
TGI (LOX IMVI melanoma): 4.3 µM
GI50 (RPMI-8226 leukemia): 2.74 µM
TGI (RPMI-8226 leukemia): 9.29 µM
GI50 (OVCAR-4 ovarian): 9.48 µM
TGI (OVCAR-4 ovarian): > 61.1 µM
GI50 (NCI-H23 lung): 23.1 µM
TGI (NCI-H23 lung): > 48.3 µM
GI50 (SF-539 CNS): 6 µM
TGI (SF-539 CNS): 42.1 µM
GI50 (NCI/ADR-RES ovarian): 14.4 µM
TGI (NCI/ADR-RES ovarian): 55.6 µM
GI50 (SK-OV-3 ovarian): 15.8 µM
TGI (SK-OV-3 ovarian): 43.4 µM
TGI (UACC-62 melanoma): 1.32 µM

O=C(O)/C(=C\c1ccccc1Cl)S(=O)(=O)c1ccccc1
TGI (LOX IMVI melanoma): > 100 µM
TGI (RPMI-8226 leukemia): > 100 µM
TGI (OVCAR-4 ovarian): > 100 µM
TGI (SF-539 CNS): > 100 µM
TGI (SK-OV-3 ovarian): > 100 µM
TGI (UACC-62 melanoma): > 100 µM
